We go through one molecule from patent US7160916B2, “Method of increasing bone density or treating osteoporosis” (Yung Shin Pharmaceutical Ind. Co., Ltd., priority 2003, dated 2007).

Holding throughout (format): cell-based, rat
Test [1] deals with Day-3 osteoblasts. The test is described as follows: Fibronectin fibrillogenesis by immunocytochemistry. The note with it: 10 μM for 24 hr. The method, then: Fibronectin (Fn) plays an important role in the regulation of adhesion, migration, and maturation of osteoblasts. Fn fibrillogenesis is involved in the process of bone mineralization. The effect of Indazole 1 on Fn fibrillogenesis in cultured osteoblasts was examined. The immobilized form of fibrillogenesis from the endogenously released Fn by monolayer Day 3˜5 osteoblasts was studied using immunocytochemistry. Incubation of Day-3 osteoblasts with Indazole 1 (10 μM) for 24 hr increased extracellular Fn assembly. Flow cytometry was used to analyze the effect of Indazole 1 on the surface expression of α5 and β1 integrins. […] On the other hand, the collagen synthesis was increased by Indazole 1 only at a higher concentration of 10 μM.

Test [2] relates to Osteoblasts. The test is described as follows: Assay of cell proliferation (BrdU incorporation). The method, then:
Primary osteoblast cultures: Primary osteoblast cells were prepared from calvaria of 18-day-old fetal Sprague-Dawley (SD) rats according to the following method: Pregnant rats were put in anesthesia using intraperitoneal injection of trichloroacetaldehyde (200 mg/kg). The calvaria of the fetal rats were then dissected with aseptic technique. Soft tissues were removed under a dissecting microscope. The calvaria were divided into small pieces and then treated with 0.1% collagenase (Sigma Chemical, St. Louis, Mo.) solution for 10 minutes at 37° C. The cells released from the calvariae by two 20-minute sequential collagenase digestions were pooled and filtered through 70 μm nylon filters (Falcon, BD BioSciences, San Jose, Calif.). The cells were then grown on plastic cell culture dishes in 95:5 air-CO2 with Dulbecco's modified Eagle's medium (DMEM) (Gibco, Grand Island, N.Y.) which was supplemented with 20 mM HEPES and 10% heat-inactivated FCS, 2 mM-glutamine, penicillin (100 U/ml) and streptomycin (100 μg/ml) (pH adjusted to 7.6). The cell medium was changed twice a week. Osteoblasts were confirmed by morphology and expression of alkaline phosphatase (ALP). […] BrdU incorporation was assayed according to the protocol of enzyme-linked immunosorbent assay chemiluminescence detection kit (Roche Molecular Biochemicals) using a luminescence counter (TopCount; Packard Instruments, Meriden, Conn.). […]

The test system of test [3] is osteoclast precursors. The test is described as follows: Osteoclastogenesis (TRAP-positive multinucleated cells). The note with it: M-CSF 20 ng/ml and sRANKL 50 ng/ml, 8 days. The method, then: Osteoclastogenesis: Bone marrow cells were prepared by removing femurs from 6–8-week-old SD rats and flushing the bone marrow cavity with DMEM which was supplemented with 20 mM HEPES and 10% heat-inactivated FCS, 2 mM-glutamine, penicillin (100 U/ml) and streptomycin (100 μg/ml). After 24 hr, the non-adherent cells (hematopoietic cells) were collected and used as osteoclast precursors. The cells were seeded at 1×10^6 cells/well (0.5 ml) in 24-well plates in the presence of human recombinant soluble RANKL (50 ng/ml, Peprotech EC Ltd., London, United Kingdom) and murine M-CSF (20 ng/ml, Genzyme, Cambridge, Mass.). The culture medium was changed every 3 days. After 8˜10 days, osteoclast formation was confirmed by an assay of tartrate-resistant acid phosphatase (TRAP) (Kotake et al., 1999). In brief, the adherent cells were fixed with 10% formaldehyde in phosphate-buffered saline for 3 min. After treatment with ethanol/acetone (50:50 v/v) for 1 min, the cell surface was air dried and incubated for 10 min at room temperature in an acetate buffer (0.1 M sodium acetate, pH 5.0) containing 0.01% naphthol AS-MX phosphate (Sigma) and 0.03% fast red violet LB salt (Sigmna) in the presence of 50 mM sodium tartrate. Osteoclast-like TRAP-positive cells in each well were scored by counting the number of TRAP-positive and multinucleated cells containing more than three nuclei.

For `OCc1ccc(-c2nn(Cc3ccccc3)c3ccccc23)o1` [Indazole 1, 1-benzyl-3-(5′-hydroxymethyl-2′-furyl)-indazole], in test [1], the “extracellular Fn assembly” value was “increased”. Further, the proliferation of osteoblasts in test [2] (0.1 μM) is listed as 119.3 % of control; in test [2] (1 μM), 126.1 % of control. Also, in test [3], the differentiation of osteoclast entry was “inhibited the differentiation of osteoclast in a concentration-dependent manner”.
